For the assay, the target named is human Kv1.3 (Homo sapiens (Human), UniProt P22001). The assay is described as follows: Kv1.3 potency evaluation, automated patch clamp electrophysiology (QPatch HT) in CHO-Kv1.3 cells. The assay is classed as cell-based. The settings on record: whole-cell QPatch HT, % inhibition of charge, step to +30 mV, four concentrations, N≥3 cells, read-out: hKv1.3 IC50. A digest of the protocol: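 Automated whole-cell patch clamp in CHO cells stably expressing human Kv1.3; steps from −80 to +30 mV (500 ms) at 0.067 Hz. Four cumulative concentrations after vehicle (0.1-0.3% DMSO); charge inhibition vs vehicle fitted by four-parameter logistic for IC50, N≥3 cells.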

These results are taken from patent US12128028B2, “Heterocyclic sulfonamide derivatives and pharmaceutical uses thereof” (METRION BIOSCIENCES LIMITED, priority 2018, dated 2024).

Chain of human Kv1.3 (P22001 whole entry): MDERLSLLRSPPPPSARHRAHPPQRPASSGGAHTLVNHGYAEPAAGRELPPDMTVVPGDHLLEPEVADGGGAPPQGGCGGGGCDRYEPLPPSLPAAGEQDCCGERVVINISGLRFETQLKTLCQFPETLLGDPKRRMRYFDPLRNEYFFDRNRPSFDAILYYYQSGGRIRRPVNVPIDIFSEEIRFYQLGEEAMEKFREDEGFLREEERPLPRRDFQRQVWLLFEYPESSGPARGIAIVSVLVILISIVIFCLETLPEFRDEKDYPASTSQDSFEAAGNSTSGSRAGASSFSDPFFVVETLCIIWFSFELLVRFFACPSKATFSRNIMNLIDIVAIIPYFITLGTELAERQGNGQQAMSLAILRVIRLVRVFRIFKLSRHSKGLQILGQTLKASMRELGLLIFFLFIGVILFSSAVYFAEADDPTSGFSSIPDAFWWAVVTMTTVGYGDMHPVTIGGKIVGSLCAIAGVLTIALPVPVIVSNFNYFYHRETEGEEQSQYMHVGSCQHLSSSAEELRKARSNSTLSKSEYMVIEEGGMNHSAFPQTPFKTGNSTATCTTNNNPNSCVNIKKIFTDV

In the case of `CC1(C)N=C(C23CC(N(Cc4ccc(Cl)c(Cl)c4)S(=O)(=O)c4ccccc4)(C2)C3)N[C@H]1C(=O)N1CCC2(C1)CC(F)(F)C2` (mixture of isomers) [Example 116], the IC50 came out at 73 nM.

For `COC1(CNC(=O)C2NC(C34CC(N(Cc5ccc(C(F)(F)F)cc5)S(=O)(=O)c5ccc(F)cc5)(C3)C4)=NC2(C)C)CCC1` (stereo not shown) [Example 237], the IC50 was 217 nM.

With `CCN(CCC(F)(F)F)C(=O)[C@@H]1NC(C23CC(N(Cc4ccc(Cl)c(F)c4)S(=O)(=O)c4ccccc4)(C2)C3)=NC1(C)C` (mixture of isomers) [Example 100], the concentration for half-maximal inhibition (IC50) was 67 nM.

For `CC(C)C1(C(=O)NCC2CCC2)CN=C(C23CC(N(Cc4ccc(C(F)(F)F)cc4)S(=O)(=O)c4ccc(F)cc4)(C2)C3)N1` (stereo not shown) [Example 266], the IC50 was 415 nM.

In the case of `CC1(C)N=C(C23CC(N(Cc4ccc(Cl)c(F)c4)S(=O)(=O)c4ccccc4)(C2)C3)N[C@H]1C(=O)N1CCC[C@@H](C(F)(F)F)C1` (mixture of isomers) [Example 178], the IC50 stood at 105 nM.

Turning to `CC1(C)N=C(C23CC(N(Cc4ccc(Cl)c(Cl)c4)S(=O)(=O)CCCF)(C2)C3)N[C@H]1C(=O)NCCC(F)(F)F` (mixture of isomers) [Example 128], the concentration for half-maximal inhibition (IC50) is 77 nM.

For the compound `CC(C)NC(=O)[C@]1(C)CN=C(C23CC(N(Cc4ccc(C(F)(F)F)cc4)S(=O)(=O)c4ccc(F)cc4)(C2)C3)N1` (mixture of isomers) [Example 196], the IC50 stood at 125 nM.

With `CC1(C)N=C(C23CC(N(Cc4ccc(Cl)cc4)S(=O)(=O)c4ccccc4)(C2)C3)N[C@H]1C(=O)NCCC(F)(F)F` (mixture of isomers) [Example 2], the IC50 was determined as 30 nM.

As to `CC1(C)N=C(C23CC(N(Cc4ccc(C(F)(F)F)c(Cl)c4)S(=O)(=O)c4ccccc4)(C2)C3)N[C@H]1C(=O)NCCC(F)(F)F` (mixture of isomers) [Example 221], the IC50 worked out at 169 nM.

Take `CC1(C)N=C(C23CC(N(Cc4ccc(Cl)c(F)c4)S(=O)(=O)c4ccccc4)(C2)C3)N[C@H]1C(=O)N1CCC2(C1)CC(F)(F)C2` (mixture of isomers) [Example 144]: the IC50 was determined as 87 nM.

Turning to `CC1(C)N=C(C23CC(N(Cc4ccc(C(F)(F)F)cc4)S(=O)(=O)c4ccc(F)cc4)(C2)C3)NC1C(=O)NCC1CC(F)(F)C1` (stereo not shown) [Example 186], the IC50 came to 110 nM.

`C[C@H]1CC(F)(F)CN1C(=O)[C@@H]1NC(C23CC(N(Cc4ccc(Cl)c(F)c4)S(=O)(=O)c4ccccc4)(C2)C3)=NC1(C)C` (mixture of isomers) [Example 44]: the IC50 worked out at 46 nM.

Regarding `CC1(C)N=C(C23CC(N(Cc4ccccc4)S(=O)(=O)c4ccccc4)(C2)C3)N[C@H]1C(=O)NCCC(F)(F)F` (mixture of isomers) [Example 25], the IC50 came to 40 nM.

Take `CC(C)(F)CNC(=O)[C@@H]1NC(C23CC(N(Cc4ccc(Cl)c(Cl)c4)S(=O)(=O)CCC(C)(F)F)(C2)C3)=NC1(C)C` (mixture of isomers) [Example 159]: the IC50 was 95 nM.

Consider `CC1(C)N=C(C23CC(N(Cc4ccc(Cl)c(Cl)c4)S(=O)(=O)CCC(F)F)(C2)C3)N[C@H]1C(=O)NCCC(F)(F)F` (mixture of isomers) [Example 165], for which the IC50 came out at 99 nM.

For the compound `CC1(C)N=C(C23CC(N(Cc4ccc(Cl)c(F)c4)S(=O)(=O)c4ccccc4)(C2)C3)N[C@H]1C(=O)NC1CC1C(F)(F)F` (mixture of isomers) [Example 75], the IC50 came to 59 nM.

With `CC1(C)N=C(C23CC(N(Cc4ccc(Cl)c(F)c4)S(=O)(=O)c4ccccc4O)(C2)C3)N[C@H]1C(=O)NCCC(F)(F)F` (mixture of isomers) [Example 225], the half-maximal inhibitory concentration (IC50) was found to be 182 nM.

Consider `CC1(C)N=C(C23CC(N(Cc4ccc(Cl)cc4)S(=O)(=O)c4ccco4)(C2)C3)N[C@H]1C(=O)NCCC(F)(F)F` (mixture of isomers) [Example 41], for which the IC50 was determined as 46 nM.

With `CCCS(=O)(=O)N(Cc1ccc(Cl)c(Cl)c1)C12CC(C3=NC(C)(C)[C@H](C(=O)N4CC5CCC(C4)C5(F)F)N3)(C1)C2` (mixture of isomers) [Example 187], the IC50 came to 110 nM.

For `O=C(NCC1CCC1)[C@H]1CN=C(C23CC(N(Cc4ccc(C(F)(F)F)cc4)S(=O)(=O)c4ccc(F)cc4)(C2)C3)N1` (mixture of isomers) [Example 209], the IC50 came to 144 nM.

Turning to `CC1(C)N=C(C23CC(N(Cc4ccc(Cl)c(F)c4)S(=O)(=O)c4ccccc4)(C2)C3)N[C@H]1C(=O)N1CCCC(F)(F)C1` (mixture of isomers) [Example 98], the IC50 was 66 nM.

With `CC(C)(C)CNC(=O)[C@@H]1NC(C23CC(N(Cc4ccc(Cl)c(F)c4)S(=O)(=O)c4ccccc4)(C2)C3)=NC1(C)C` (mixture of isomers) [Example 53], the IC50 came out at 49 nM.

Regarding `CC1(C)N=C(C23CC(N(Cc4ccc(Cl)c(F)c4)S(=O)(=O)c4ccccc4)(C2)C3)N[C@H]1C(=O)N1CCC2(CCC2)C1` (mixture of isomers) [Example 109], the IC50 was determined as 71 nM.

For the compound `CN(C(=O)[C@@H]1NC(C23CC(N(Cc4ccc(Cl)c(F)c4)S(=O)(=O)c4ccccc4)(C2)C3)=NC1(C)C)C1CC(C(F)F)C1` (mixture of isomers) [Example 38], the 50% inhibitory concentration (IC50) came out at 45 nM.

In the case of `CC1(C)N=C(C23CC(N(Cc4ccc(Cl)cc4)S(=O)(=O)C4CCC4)(C2)C3)N[C@H]1C(=O)NCCC(F)(F)F` (mixture of isomers) [Example 170], the concentration for half-maximal inhibition (IC50) was determined as 101 nM.

In the case of `CC1(C)N=C(C23CC(N(Cc4ccc(Cl)c(Cl)c4)S(=O)(=O)c4ccccc4)(C2)C3)N[C@H]1C(=O)NCCC(F)(F)F` (mixture of isomers) [Example 62], the IC50 amounted to 52 nM.

For `CC1(C)N=C(C23CC(N(Cc4ccc(Cl)c(F)c4)S(=O)(=O)c4ccccc4)(C2)C3)N[C@H]1C(=O)N1CCC2(CC2)C1` (mixture of isomers) [Example 57], the 50% inhibitory concentration (IC50) stood at 50 nM.

On to `CC1(CNC(=O)[C@@]2(C)CN=C(C34CC(N(Cc5ccc(C(F)(F)F)cc5)S(=O)(=O)c5ccc(F)cc5)(C3)C4)N2)CCC1` (mixture of isomers) [Example 267], for which the IC50 was determined as 424 nM.

`CC1(C)N=C(C23CC(N(Cc4ccc(Cl)c(F)c4)S(=O)(=O)c4ccccc4)(C2)C3)N[C@@H]1C(=O)NCCC(F)(F)F` (mixture of isomers) [Example 146]: the IC50 amounted to 88 nM.

As to `CC1(C)N=C(C23CC(N(Cc4ccc(Cl)cc4)S(=O)(=O)c4ccoc4)(C2)C3)N[C@H]1C(=O)NCCC(F)(F)F` (mixture of isomers) [Example 8], the IC50 amounted to 27 nM.

For the compound `CCCS(=O)(=O)N(Cc1ccc(Cl)c(Cl)c1)C12CC(C3=NC(C)(C)[C@H](C(=O)N4C5CCC4CC(F)(F)C5)N3)(C1)C2` (mixture of isomers) [Example 190], the IC50 is 113 nM.

As for `CC1(C)N=C(C23CC(N(Cc4ccc(Cl)c(Cl)c4)S(=O)(=O)c4ccccc4)(C2)C3)N[C@H]1C(=O)N1CCC(F)(F)C2(CC2)C1` (mixture of isomers) [Example 167], the IC50 was determined as 99 nM.

Turning to `CC1(C)N=C(C23CC(N(Cc4ccc(Cl)cc4)S(=O)(=O)CCC(F)F)(C2)C3)N[C@H]1C(=O)NCCC(F)(F)F` (mixture of isomers) [Example 137], the IC50 amounted to 82 nM.

Take `CC1(C)N=C(C23CC(N(Cc4ccc(Cl)c(Cl)c4)S(=O)(=O)CCCF)(C2)C3)N[C@H]1C(=O)NCC1CC(F)(F)C1` (mixture of isomers) [Example 132]: the IC50 was 78 nM.

For `CC1(C)N=C(C23CC(N(Cc4ccc(Cl)cc4)S(=O)(=O)c4cccc(Cl)c4)(C2)C3)N[C@H]1C(=O)NCCC(F)(F)F` (mixture of isomers) [Example 52], the IC50 stood at 49 nM.

On to `CN(CC1CC(F)(F)C1)C(=O)[C@@H]1NC(C23CC(N(Cc4ccc(Cl)c(F)c4)S(=O)(=O)c4ccccc4)(C2)C3)=NC1(C)C` (mixture of isomers) [Example 133], for which the IC50 was 78 nM.

With `CC1(F)CCN(C(=O)[C@@H]2NC(C34CC(N(Cc5ccc(Cl)c(F)c5)S(=O)(=O)c5ccccc5)(C3)C4)=NC2(C)C)C1` (mixture of isomers) [Example 127], the IC50 was determined as 77 nM.

For the compound `CC1(C)N=C(C23CC(N(Cc4ccc(Cl)c(F)c4)S(=O)(=O)c4ccccc4)(C2)C3)N[C@H]1C(=O)NC1CC(C(F)F)C1` (mixture of isomers) [Example 84], the IC50 was determined as 61 nM.

As to `CC1(C)N=C(C23CC(N(Cc4ccc(Cl)c(F)c4)S(=O)(=O)c4ccccc4)(C2)C3)N[C@H]1C(=O)N1CC2CC2C1` (mixture of isomers) [Example 81], the IC50 is 61 nM.

On to `CC1(C)N=C(C23CC(N(Cc4ccc(F)c(Cl)c4)S(=O)(=O)c4ccccc4)(C2)C3)N[C@H]1C(=O)NCCC(F)(F)F` (mixture of isomers) [Example 65], for which the IC50 stood at 53 nM.

Consider `CC(C)(C)CNC(=O)[C@@H]1NC(C23CC(N(Cc4ccc(Cl)c(Cl)c4)S(=O)(=O)CCC(F)F)(C2)C3)=NC1(C)C` (mixture of isomers) [Example 106], for which the IC50 was 70 nM.

As to `CC1(C)N=C(C23CC(N(Cc4ccc(Cl)c(F)c4)S(=O)(=O)c4ccccc4)(C2)C3)N[C@H]1C(=O)N1CCC2(C1)CC2(F)F` (mixture of isomers) [Example 129], the IC50 stood at 78 nM.

`C[C@]1(C(=O)NCCC(F)(F)F)CN=C(C23CC(N(Cc4ccc(C(F)(F)F)cc4)S(=O)(=O)c4ccc(F)cc4)(C2)C3)N1` (mixture of isomers) [Example 202]: the IC50 amounted to 134 nM.

Turning to `C[C@H](NC(=O)[C@@H]1NC(C23CC(N(Cc4ccc(Cl)c(F)c4)S(=O)(=O)c4ccccc4)(C2)C3)=NC1(C)C)C(F)(F)F` (mixture of isomers) [Example 73], the IC50 came out at 58 nM.

Turning to `CC1(C)N=C(C23CC(N(Cc4ccc(Cl)c(Cl)c4)S(=O)(=O)CCC(F)F)(C2)C3)N[C@H]1C(=O)NC12CC(C1)C2` (mixture of isomers) [Example 72], the IC50 came out at 57 nM.

For the compound `CC1(C)N=C(C23CC(N(Cc4ccc(Cl)c(Cl)c4)S(=O)(=O)c4ccccc4O)(C2)C3)N[C@H]1C(=O)NCCC(F)(F)F` (mixture of isomers) [Example 226], the IC50 came out at 185 nM.
